{
  "source": "paper PMC6675714",
  "about": "(Cancer Medicine, 2019)",
  "key": {"Caki‐1 xenograft tumors": {"test_system": "Caki‐1 xenograft tumors", "test": "Cell proliferation (Ki67) and apoptosis (cleaved caspase 3) in tumor sections", "format": "in vivo, NOD.CB17‐Prkdc SCID/J mice", "conditions": "tumors at 21‐day trial endpoint", "description": "Tissue sections were prepared by embedding in OCT (Thermo Fisher Scientific, Waltham, MA) followed by freezing at − 80°C. Vessel leakiness was evaluated following tail‐vein injection of 100 μL of Dextran Texas Red (Invitrogen). Vessel integrity was assessed after tail‐vein injection of 50 μL of lectin labelled with FITC (Vector Labs, Burlingame, CA). Apoptotic cells were visualized using an anti‐rabbit cleaved caspase 3 primary antibody (Cell Signaling Technology, Danvers, MA) and an goat‐anti‐rabbit Alexa Fluor 594 secondary antibody (Cell Signaling Technology); proliferating cells were visualized using an anti‐mouse Ki67 primary antibody (Cell Signaling Technology) and an goat‐anti‐mouse Alexa Fluor 488 secondary antibody (Cell Signaling Technology); DAPI containing ProLong Gold Antifade Mounting Medium (Cell Signaling Technology) was used to visualize the nuclei and mount the slide.\nFor all histological analyses, tumors from treated mice were compared to those of the vehicle control of the intervention trial. Samples from 4 mice per treatment group were analyzed. Stained samples were imaged at 20× magnification (ZEISS LSM 700). Cell proliferation and apoptosis were quantified one channel at a time using ImageJ (NIH, open access software) and were calculated as the percentage of Ki67 positive or cleaved caspase 3 positive cells per DAPI positive cells per field of view."}, "[1]": {"test": "Histopathology of organs and tissues after the trial", "format": "in vivo, NOD.CB17‐Prkdc scid/J mice", "parameters": "key to Histopathological finding: Lungs / Histopathological finding: Thymus / Histopathological finding: Kidneys / Histopathological finding: Gallbladder / Histopathological finding: Stomach / Histopathological finding: Cecum / Histopathological finding: Colon / Histopathological finding: Mesenteric lymph node / Histopathological finding: Salivary glands / Histopathological finding: Submandibular lymph node / Histopathological finding: Uterus / Histopathological finding: Cervix / Histopathological finding: Vagina / Histopathological finding: Testes/epididymis / Histopathological finding: Prostate / Histopathological finding: Seminal vesicles / Histopathological finding: Urinary bladder / Histopathological finding: Adrenals / Histopathological finding: Ovaries / Histopathological finding: Oviducts / Histopathological finding: Trachea / Histopathological finding: Esophagus / Histopathological finding: Thyroid / Histopathological finding: Parathyroid / Histopathological finding: Mammary glands / Histopathological finding: Bones (femur, tibia, sternum, vertebrae) / Histopathological finding: Stifle joint / Histopathological finding: Skeletral muscles (hind limb, spine) / Histopathological finding: Nerves (hind limb, spine) / Histopathological finding: Spinal cord / Histopathological finding: Oral cavity / Histopathological finding: Teeth / Histopathological finding: Nasal cavity / Histopathological finding: Eyes / Histopathological finding: Harderian gland / Histopathological finding: Bones (skull) / Histopathological finding: Pituitary / Histopathological finding: Brain / Histopathological finding: Ears / Histopathological finding: Heart: N: Normal", "source_text": "At the end of the intervention trial, female and male NOD.CB17‐Prkdc scid/J mice bearing subcutaneous Caki‐1 tumors were euthanized, blood was collected by intracardiac puncture and the carcasses were perfused with 4% PFA. Lung, kidney, heart, spleen, lymphatic tissue were collected, mounted in paraffin, sectioned and stained by Hemotoxilyn & Eosin. Samples were imaged at 20× under light microscope for analysis."}},
  "note": "Entries after “also recorded” stand apart in the source; their conditions may differ.",
  "data": [
    {"substance": "[Cl2(p‐cymene)Ru(μ‐dppm)Au(IMes)]ClO4 [RANCE‐1]", "values": [
      {"measurement": "Apoptotic cells (cleaved caspase 3 positive) per DAPI positive cells", "setting": "Caki‐1 xenograft tumors", "result": 1.6, "unit": "%"},
      {"measurement": "Proliferating cells (Ki67 positive) per DAPI positive cells", "setting": "Caki‐1 xenograft tumors", "result": 2, "unit": "%"},
      {"measurement": "Reduction of tumor cell proliferation vs Veh", "setting": "Caki‐1 xenograft tumors", "result": 18, "unit": "fold"},
      {"measurement": "Decrease in apoptosis", "setting": "Caki‐1 xenograft tumors; vs Vehicle", "result": 0.4, "unit": "%"},
      {"measurement": "Decrease in cell proliferation", "setting": "Caki‐1 xenograft tumors; vs Vehicle", "result": 36, "unit": "%"},
      {"measurement": "Histological changes in liver, spleen, or kidney tissue", "setting": "[1]; H&E, end of the 21 day efficacy trial", "result": "does not induce histological changes"},
      {"measurement": "Histopathological finding: Adrenals", "setting": "[1]; end of 21 day trial", "result": "N"},
      {"measurement": "Histopathological finding: Bone marrow (femur, tibia, sternum, vertebrae)", "setting": "[1]; end of 21 day trial", "result": "Moderate diffuse granulocytic hyperplasia; Moderate diffused Erythroid hypoplasia."},
      {"measurement": "Histopathological finding: Bones (femur, tibia, sternum, vertebrae)", "setting": "[1]; end of 21 day trial", "result": "N"},
      {"measurement": "Histopathological finding: Bones (skull)", "setting": "[1]; end of 21 day trial", "result": "N"},
      {"measurement": "Histopathological finding: Brain", "setting": "[1]; end of 21 day trial", "result": "N"},
      {"measurement": "Histopathological finding: Cecum", "setting": "[1]; end of 21 day trial", "result": "N"},
      {"measurement": "Histopathological finding: Cervix", "setting": "[1]; end of 21 day trial", "result": "N"},
      {"measurement": "Histopathological finding: Colon", "setting": "[1]; end of 21 day trial", "result": "N"},
      {"measurement": "Histopathological finding: Duodenum, jejunum, ileum", "setting": "[1]; end of 21 day trial", "result": "Mild peritonitis and serositis, neutrophilic and histiocytic, multifocal."},
      {"measurement": "Histopathological finding: Ears", "setting": "[1]; end of 21 day trial", "result": "N"},
      {"measurement": "Histopathological finding: Esophagus", "setting": "[1]; end of 21 day trial", "result": "N"},
      {"measurement": "Histopathological finding: Eyes", "setting": "[1]; end of 21 day trial", "result": "N"},
      {"measurement": "Histopathological finding: Gallbladder", "setting": "[1]; end of 21 day trial", "result": "N"},
      {"measurement": "Histopathological finding: Harderian gland", "setting": "[1]; end of 21 day trial", "result": "N"},
      {"measurement": "Histopathological finding: Heart", "setting": "[1]; end of 21 day trial", "result": "N"},
      {"measurement": "Histopathological finding: Kidneys", "setting": "[1]; end of 21 day trial", "result": "N"},
      {"measurement": "Histopathological finding: Liver", "setting": "[1]; end of 21 day trial", "result": "Minimal extramedullary hematopoiesis. Minimal hepatocyte hypertrophy. Mild vacuolar change (microvesicular)"},
      {"measurement": "Histopathological finding: Lungs", "setting": "[1]; end of 21 day trial", "result": "N"},
      {"measurement": "Histopathological finding: Mammary glands", "setting": "[1]; end of 21 day trial", "result": "N"},
      {"measurement": "Histopathological finding: Mesenteric lymph node", "setting": "[1]; end of 21 day trial", "result": "N"},
      {"measurement": "Histopathological finding: Nasal cavity", "setting": "[1]; end of 21 day trial", "result": "N"},
      {"measurement": "Histopathological finding: Nerves (hind limb, spine)", "setting": "[1]; end of 21 day trial", "result": "N"},
      {"measurement": "Histopathological finding: Oral cavity", "setting": "[1]; end of 21 day trial", "result": "N"},
      {"measurement": "Histopathological finding: Ovaries", "setting": "[1]; end of 21 day trial", "result": "N"},
      {"measurement": "Histopathological finding: Oviducts", "setting": "[1]; end of 21 day trial", "result": "N"},
      {"measurement": "Histopathological finding: Pancreas", "setting": "[1]; end of 21 day trial", "result": "Minimal peritonitis, neutrophilic and histiocytic, multifocal"},
      {"measurement": "Histopathological finding: Parathyroid", "setting": "[1]; end of 21 day trial", "result": "N"},
      {"measurement": "Histopathological finding: Pituitary", "setting": "[1]; end of 21 day trial", "result": "N"},
      {"measurement": "Histopathological finding: Prostate", "setting": "[1]; end of 21 day trial", "result": "N"},
      {"measurement": "Histopathological finding: Salivary glands", "setting": "[1]; end of 21 day trial", "result": "N"},
      {"measurement": "Histopathological finding: Seminal vesicles", "setting": "[1]; end of 21 day trial", "result": "N"},
      {"measurement": "Histopathological finding: Skeletral muscles (hind limb, spine)", "setting": "[1]; end of 21 day trial", "result": "N"},
      {"measurement": "Histopathological finding: Spinal cord", "setting": "[1]; end of 21 day trial", "result": "N"},
      {"measurement": "Histopathological finding: Spleen", "setting": "[1]; end of 21 day trial", "result": "Mild increase in extramedullary hematopoiesis with granulocyte hyperplasia."},
      {"measurement": "Histopathological finding: Stifle joint", "setting": "[1]; end of 21 day trial", "result": "N"},
      {"measurement": "Histopathological finding: Stomach", "setting": "[1]; end of 21 day trial", "result": "N"},
      {"measurement": "Histopathological finding: Submandibular lymph node", "setting": "[1]; end of 21 day trial", "result": "N"},
      {"measurement": "Histopathological finding: Teeth", "setting": "[1]; end of 21 day trial", "result": "N"},
      {"measurement": "Histopathological finding: Testes/epididymis", "setting": "[1]; end of 21 day trial", "result": "N"},
      {"measurement": "Histopathological finding: Thymus", "setting": "[1]; end of 21 day trial", "result": "N"},
      {"measurement": "Histopathological finding: Thyroid", "setting": "[1]; end of 21 day trial", "result": "N"},
      {"measurement": "Histopathological finding: Trachea", "setting": "[1]; end of 21 day trial", "result": "N"},
      {"measurement": "Histopathological finding: Urinary bladder", "setting": "[1]; end of 21 day trial", "result": "N"},
      {"measurement": "Histopathological finding: Uterus", "setting": "[1]; end of 21 day trial", "result": "N"},
      {"measurement": "Histopathological finding: Vagina", "setting": "[1]; end of 21 day trial", "result": "N"},
      {"measurement": "Adverse effects / pathological complications on histological evaluation", "setting": "[1]; forty‐seven organ and tissue types, after 21 days of treatment", "result": "no signs of pathological complications; also recorded: no significant adverse effects"}
    ]}
  ]
}
